Laboratory results published in patent US9956157B2, “Composition containing fucosterol for skin whitening or moisturizing” (INDUSTRY-ACADEMIC COOPERATION FOUNDATION, YONSEI UNIVERSITY, priority 2014, dated 2018).

What was measured:
Type in all cases: cell-based
tyrosinase [1] = assay: Tyrosinase protein expression (western blot) in B16F10 melanoma cells; details: 200 nM α-MSH, fucosterol 5 and 20 μM, 24 hrs, FIG. 5
Method: B16F10 melanoma cells were incubated in a DMEM medium including 10% fetal bovine serum and then added in a 6-well plate with 2.5×10^5 cell/mL (the final volume of 3 mL). After being incubated for 24 hrs, the medium was removed and fucosterol which was dissolved in the DMEM medium including 200 nM α-MSH was treated at 5 and 20 μM of concentrations, respectively. The cells after 24 hrs were lysed with a NP40 buffer solution including proteinase inhibitor cocktail and the protein amount extracted from the cells was quantified by using a Bio-Rad protein assay dye (Bradford) reagent. The quantified protein was boiled for 5 min and isolated by electrophoresis with 10% SDS-PAGE to transfer the isolated proteins to a nitrocellular membrane. A primary antibody of tyrosinase was diluted in 2.5% bovine serum albumin at a ratio of 1:1000 and reacted with the protein transferred to the nitrocellular membrane for 20 hrs at room temperature. The primary antibody was reacted and the nitrocellular membrane was washed by using tris-buffer saline tween 20 (TBST) three times for 10 min. […] As the measured result, the protein expression of tyrosinase was verified and the loading amount of the protein was constant by α-tubulin.

involucrin = assay: Involucrin protein expression (western blot) in HaCaT human keratinocytes; details: HaCaT cells, fucosterol 5, 10, 20 μM, 24 hrs, FIG. 10
Method: (§1) HaCaT human keratinocytes were incubated in a Dulbecco's Modified Eagle's Media (DMEM) medium including 10% fetal bovine serum and then put in a 6-well plate with 2×10^5 cell/ml (the final volume of 3 ml). After being incubated for 24 hrs, the medium was removed and fucosterol which was dissolved in the DMEM medium was treated at 5, 10, and 20 μM concentrations, respectively. After 24 hrs, the HaCaT human keratinocytes were lysed with a NP40 buffer solution including proteinase inhibitor cocktail. The protein amount extracted from the HaCaT human keratinocytes was quantified by using a Bradford method. The sample was boiled for 5 min and then the same amount of protein ([…]) was isolated by electrophoresis with 10% SDS-PAGE. The isolated proteins after electrophoresis were transferred to a nitrocellular membrane and western blot was performed. A primary antibody was reacted and the nitrocellular membrane was washed three times by using Tris-buffer saline tween20 (TBST) for 10 min. In this case, the kind and the dilution of the primary antibody used in the present invention is 1:1000. In a secondary antibody reaction, a secondary antibody was put in the membrane performing the primary antibody reaction and reacted for 2 hrs at room temperature. In this case, a dilution of the secondary antibody was 1:5000. […]

transglutaminase = assay: Transglutaminase mRNA expression (RT-PCR) in HaCaT human keratinocytes; details: HaCaT cells, fucosterol 5, 10, 20 μM, 24 hrs, FIG. 9
Method: HaCaT human keratinocytes were incubated in a Dulbecco's Modified Eagle's Media (DMEM) medium including 10% fetal bovine serum and then put in a 6-well plate with 2×10^5 cell/ml (the final volume of 3 ml). After being incubated for 24 hrs, the medium was removed and fucosterol which was dissolved in the DMEM medium was treated at 5, 10, and 20 μM concentrations, respectively. After 24 hrs, the total RNA was collected by using a TRIzol reagent (Invitrogen, Carlsbad, Calif., USA) and reverse-transcribed and then a reverse transcription-polymerase chain reaction (RT-PCR) analysis was performed below. First, for cDNA synthesis, the RNA was reverse-transcribed by reverse transcriptase. The RT-PCR was performed by specific primers below and the result was illustrated in FIG. 9.

loricrin = assay: Loricrin protein expression (western blot) in HaCaT human keratinocytes; details: HaCaT cells, fucosterol 5, 10, 20 μM, 24 hrs, FIG. 10
Method: as §1

B16F10 melanoma cells = assay: Microscopic observation of melanin generation in α-MSH-stimulated B16F10 melanoma cells; details: 200 nM α-MSH, fucosterol 5 and 20 μM, 72 hrs, FIG. 3
Method: B16F10 melanoma cells were incubated in a DMEM medium including 10% fetal bovine serum and then added in a 6-well plate with 2.5×10^5 cell/mL (the final volume of 3 mL). After being incubated for 24 hrs, the medium was removed and fucosterol which was dissolved in the DMEM medium including 200 nM α-MSH was treated at 5 and 20 μM of concentrations, respectively. After 72 hrs, the incubated medium was removed from the 6-well plate and the B16F10 melanoma cells were photographed by using a microscope (Olympus IX71 Model), and the result was illustrated in FIG. 3.

tyrosinase [2] = molecular target: T1, tyrosinase (Mus musculus, UniProt P11344); assay: Tyrosinase activity (L-DOPA, dopachrome) in α-MSH-stimulated B16F10 melanoma cells; details: 200 nM α-MSH, fucosterol 5, 10, 20 μM, 48 hrs, P<0.01, FIG. 4
T1 construct: endogenous in cells; host or cells: B16F10 melanoma cells (α-MSH stimulated)
T1 sequence (P11344 19-533): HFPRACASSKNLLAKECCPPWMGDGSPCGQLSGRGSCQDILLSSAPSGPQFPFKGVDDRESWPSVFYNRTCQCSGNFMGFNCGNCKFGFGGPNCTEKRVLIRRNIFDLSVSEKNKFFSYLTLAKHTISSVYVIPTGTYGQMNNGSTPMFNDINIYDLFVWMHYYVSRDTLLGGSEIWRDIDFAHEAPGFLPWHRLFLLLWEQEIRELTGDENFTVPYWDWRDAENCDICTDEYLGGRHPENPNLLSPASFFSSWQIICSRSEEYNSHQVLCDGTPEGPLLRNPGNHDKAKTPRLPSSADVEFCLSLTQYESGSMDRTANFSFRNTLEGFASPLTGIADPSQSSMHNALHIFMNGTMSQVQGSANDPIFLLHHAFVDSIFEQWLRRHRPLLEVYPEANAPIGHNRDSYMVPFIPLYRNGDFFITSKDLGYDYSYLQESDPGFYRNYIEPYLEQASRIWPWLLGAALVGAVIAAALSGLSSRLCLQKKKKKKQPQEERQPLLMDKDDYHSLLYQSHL
Method: B16F10 melanoma cells were incubated in a DMEM medium including 10% fetal bovine serum and then added in a 6-well plate with 2.5×10^5 cell/mL (the final volume of 3 mL). After being incubated for 24 hrs, the medium was removed and fucosterol which was dissolved in the DMEM medium including 200 nM α-MSH was treated at 5, 10, and 20 μM concentrations, respectively. After 48 hrs, the incubated medium was removed from the 6-well plate and PBS including 1% Triton X-100 was added to collect the cells. The collected cells were centrifuged for 10 min and 150 μL of a supernatant was put in a 96-well plate and 50 μL of L-3,4-dihydroxyphenylalanine (L-DOPA) was added. With respect to an amount of dopachrome generated after incubated for 30 min at 37° C., absorbance was measured at 475 nm by using a microplate reader (Versa max, Sunnyvale, Calif., USA). In this case, cells without the fucosterol were set to a control group and the tyrosinase activity degree was measured in the control group and cells treated with the fucosterol. According to Equation 2 below, the tyrosinase activity compared with the control group was calculated and the result was illustrated in FIG. 4. Tyrosinase activity (%) compared with control group=Reaction absorbance of each test material/Reaction absorbance of control group×100 [Equation 2]

For `C/C=C(\CC[C@@H](C)[C@H]1CC[C@H]2[C@@H]3CC=C4C[C@@H](O)CC[C@]4(C)[C@H]3CC[C@]12C)C(C)C` [fucosterol], the “protein expression of tyrosinase” value (tyrosinase [1]) was “reduced”, the “protein expression of involucrin” value (involucrin) was “increased” and the “mRNA expression of transglutaminase” value (transglutaminase) was “increased”. The “protein expression of loricrin” value (loricrin) was “increased”, the “melanin generation, microscopic observation” value (B16F10 melanoma cells) was “largely inhibited” and the “inhibitory effect on tyrosinase activity” value (tyrosinase [2]) was “very excellent inhibitory effect”.
